# Assay results reported in PMC7661967, “Magnetic Resonance Molecular Imaging of Extradomain B Fibronectin Improves Imaging of Pancreatic Cancer Tumor Xenografts” (Frontiers in Oncology, 2020).
# “And” between values parts separate entries of the source, which are not always exact repeats. Equal values may be shown once. “Also recorded” adds a separate entry of the source. No end group written: not given here.
# Key:
# [1] = cited from earlier work
# Source text: (§1) ZD2 targeted MRI contrast agents have been developed and tested for MRMI of EDB-FN in aggressive breast cancer and prostate cancer models ([15], [16], [20]). The targeted contrast agent ZD2-N3-Gd(HP-DO3A) (MT218) was developed by conjugating ZD2 peptide to a clinical macrocyclic contrast agent Gd(HP-DO3A) ([16], [20]). […] The ...
# [2] = test system: aggressive breast and prostate cancers; conditions: cited from earlier work
# Source text: as §1
# [3] = test system: Capan-1 flank tumor xenografts; test: MRMI of Capan-1 flank tumor xenografts (7T); format: in vivo, human cells in female nu/nu mice
# Method: (§2) For flank xenograft models, 4 × 10^6 Capan-1 cells suspended in 100 μL of a 6 mg/mL Matrigel (Corning, Corning, NY) solution was injected subcutaneously into the flank of 8-week-old female nu/nu mice. The tumor bearing mice were imaged after tumor volumes exceeded 300 mm^3. For orthotopic intrapancreatic models, the pancreas of 4-week-old female nu/nu mice were surgically exposed via a ~10 mm incision in the left ventral abdomen and the application of gentle pressure to express the spleen and associated pancreatic tissue. 1 × 10^6 BxPC3-GFP-Luc or PANC-1-GFP-Luc cells suspended in 100 μL of a Matrigel solution (6 mg/mL) was injected into the pancreatic tissue using an insulin syringe with a 31G needle. Any leakage of cell suspension was lavaged with DPBS twice to prevent intraabdominal seeding PaCa cells. The peritoneal fascia was closed with absorbable stitches, and the dermis closed with stainless steel wound clips. Prior to imaging, growth of tumor was verified by bioluminescence imaging with intraperitoneal injection of d-luciferin on IVIS Spectrum system (Perkin Elmer, Waltham, MA).
# Flank tumor-bearing mice were anesthetized and a tail vein catheter inserted. MR image acquisition was performed on a 7T Biospin (Bruker, Billerica, MA) preclinical small animal scanner with a volume radiofrequency coil. Axial images were obtained using a multi-spin multi-echo (MSME) MRI sequence (500 ms TR, 8.1 ms TE, 90° FA, 4.50 cm × 4.50 cm FOV, 1.50 mm slice thickness, 16 slices, 2 averages, 200 × 200 matrix, 0.0225 × 0.0225 cm/pixel resolution). Contrast agents were injected at a dose of 0.1 mmol/kg (100 μL) via the tail vein catheter, followed by a saline flush. Images of the tumors were acquired before contrast and at various time points after contrast administration. Gd(HP-DO3A) was used as a control.
# (§3) Image files were exported and analyzed in Horus software. ROIs were drawn in the tumor, liver, kidney, and muscle. Muscle ROIs were taken from the muscle, with other structures (liver, kidney, tumor) identified after comparison with published images and comparison with anatomical landmarks or bioluminescent imaging. Pancreatic lesions were localized using the liver, kidney, and spleen as anatomical landmarks. […] Size of ROIs drawn for image analysis are summarized in Supplementary Table 1. The contrast-to-noise ratio of the tumor (CNR) was calculated using the following equation, where σnoise is the standard deviation of intensities from an ROI drawn outside of the mouse body:
# (§4) CNR=Mean IntensityTumor-Mean IntensityMuscle/σnoise.
# (§5) Image subtraction was performed on images adjusted to the same window and level in FIJI open-source software.
# (§6) Image contrast was reported as fold enhancement of contrast to noise ratio of post-contrast images over pre-contrast images using Fold Enhancement = CNRpost/CNRpre. Statistical analysis of CNR was performed in Minitab Express (Minitab Inc., State College, PA). One-way ANOVA with Fisher Individual Tests for Differences of Means post-hoc testing was performed to determine statistical significance between >2 means (p < 0.05). Student's T test was used to determine statistical significance between 2 means (p < 0.05).
# [4] = test system: BxPC3-GFP-Luc intrapancreatic tumor xenografts; test: MRMI of BxPC3-GFP-Luc intrapancreatic tumor xenografts (3T); format: in vivo, human cells in female nu/nu mice
# Method: as §2
# Mice bearing intrapancreatic tumors were anesthetized and a tail vein catheter was inserted. Image acquisition was performed on a MR Solutions 3T MRS 3000 scanner with a mouse radiofrequency coil. Axial images were obtained using a Fast Spin Echo (FSE) MRI sequence (305 ms TR, 11 ms TE, 90° FA, 4 cm × 4 cm FOV, 1 mm slice thickness, 10 slices, echo train length = 4, echo spacing = 11 ms, 4 averages, 256 × 256 matrix, 0.0156 × […] cm/pixel resolution) with respiratory gating. Images were acquired before contrast and at different time points after contrast injection at a dose of 0.1 mmol/kg (100 μL). For competitive binding experiments, a 5:1 molar ratio of free ZD2 peptide to MT218 was injected in mice bearing intrapancreatic BxPC3 tumor xenografts (n = 3) at a dose of 0.1 mmol MT218/kg (100 μL). Images obtained on the MR Solutions 3T scanner were normalized using the Surscalereader.exe (MR Solutions, Guildford, UK) program supplied.
# as §3, §4, §5, §6
# [5] = T1 and T2 relaxivity measurement at 3T; format: physicochemical
# Method: The T1 and T2 values of MT218 and Gd(HP-DO3A) solutions were determined using a 3T MRS 3000 scanner (MR Solutions, Guildford, UK). Solutions of MT218 were prepared at concentrations of 0, 0.25, 0.5, 1, and 2 mM in DPBS buffer (Gibco, Gaithersburg, MD). T1 values were measured using an inversion recovery-fast low angle shot (IR-FLASH) sequence (τ = 10 ms, TE = 4 ms, FA = 8°, echoes/frames = 128, FOV = 40 mm × 40 mm, slice thickness = 2 mm, number of averages = 1, time delay = 4,000 ms, sample period = 200, matrix = 256 × 128). T2 values were obtained using a multi-echo multi-slice (MEMS) sequence (TE = 15 ms, […], echoes = 10, FOV: 40 mm × 40 mm, slice thickness = 1 mm, number of averages = 1, matrix = 256 × 192). The r1 and r2 relaxivities were calculated from the slopes of 1/T1 and 1/T2 vs. Gd concentration plots, respectively.
# [6] = 0.1 mmol/kg, 10 min post-injection, n = 3
substance,measurement,setting,value
"ZD2-N3-Gd(HP-DO3A) (TVRTSAD; also: conjugated via N3 to Gd(HP-DO3A) contrast agent, end not given here) [MT218, small molecular conjugate of ZD2 peptide to a macrocyclic clinical MRI contrast agent Gd(HP-DO3A)]","T1 relaxivity compared with Gd(HP-DO3A), in words",[1],higher T1 relaxivity than Gd(HP-DO3A)
same,contrast enhancement,[2],superior contrast enhancement
same,contrast enhancement in tumor periphery,"[3]; 0.1 mmol/kg, 5 min post-injection, MT218 vs Gd(HP-DO3A)",Stronger contrast enhancement
same,maximum increase of tumor CNR (post/pre),"[3]; 0.1 mmol/kg, 15 min post-injection, MT218 n = 7",4.8 fold
same,contrast enhancement in tumor core,"[3]; 0.1 mmol/kg, after injection",gradually increased
same,"enhancement in tumor periphery, subtraction images","[3]; 0.1 mmol/kg, early time points (5–15 min post-contrast)",strong initial enhancement
same,"contrast enhancement throughout tumors, subtraction images","[3]; 0.1 mmol/kg, later time points (25–35 min) for MT218, all time points for Gd(HP-DO3A)",robust tumor contrast enhancement throughout the tumors
same,duration for which CNR increase maintained,"[3]; 0.1 mmol/kg, post-injection",at least 35 min
same,MT218 CNR relative to Gd(HP-DO3A) control,"[3]; Capan-1 flank, control Gd(HP-DO3A), p < 0.05",273%
same,CNR relative to clinical agent,"[3]; Capan-1 flank, vs Gd(HP-DO3A), p < 0.05",2.7 times
same,tumor CNR increase (post/pre),"[4]; 0.1 mmol/kg, 10 min post-injection (maximum for MT218), n = 3",5.3 fold
same,tumor contrast enhancement,[4]; [6],strong contrast enhancement
same,"tumor enhancement, subtraction images",[4]; [6],strong enhancement and clear delineation
same,tumor contrast enhancement,"[4]; 0.1 mmol/kg, 20 min post-injection, n = 3",decreased
same,tumor contrast enhancement,"[4]; 0.1 mmol/kg, 30 min post-injection, n = 3",returned to background levels
same,MT218 CNR relative to control,"[4]; BxPC3-GFP-Luc intrapancreatic, control Gd(HP-DO3A), p < 0.05",212%
same,CNR relative to clinical agent,"[4]; BxPC3-GFP-Luc intrapancreatic, vs Gd(HP-DO3A), p < 0.05",2.1 times
same,CNR increase,"[4]; MT218 0.1 mmol/kg co-injected with 5-fold excess free ZD2 peptide, n = 3",approximately 2.5 fold
same,"contrast enhancement, competitive binding experiment","[4]; MT218 0.1 mmol/kg co-injected with 5-fold excess free ZD2 peptide, vs MT218 alone, n = 3",significant reduction of contrast enhancement
same,CNR with free ZD2 peptide compared with MT218 alone,"[4]; MT218 co-injected with 5-fold free ZD2 peptide, n = 3, p < 0.05",significant decrease in tumor CNR; also recorded: significantly lower
same,size of smallest tumor detected / better visualized,"[4]; smallest average size / area of tumor nodules, cf. BxPC3 + MT218 ROI in Supplementary Table 1",6.1 mm^2 and 6.13 mm^2
same,T1 relaxivity (r1),"[5]; 0-2 mM MT218 in DPBS buffer, IR-FLASH",6.07 ± 1.13 s⁻¹ mM⁻¹
same,T2 relaxivity (r2),"[5]; 0-2 mM MT218 in DPBS buffer, MEMS",8.20 ± 0.18 s⁻¹ mM⁻¹
same,T1 relaxivity relative to Gd(HP-DO3A),[5]; targeted agent vs corresponding clinical agent,~2 fold
